From a melting point compilation (Tetko et al.; mined from patent text by program, amines drawn as free bases though some values may be those of a salt)

In the case of `O=C(O)COc1ccc(OCCC2CCN(c3ccncc3)CC2)cc1`, the melting point is reported as 247 to 249 °C. Compound `COc1cc(Nc2nc3cccc(-c4ccc(S(=O)(=O)N(C)C)cc4)c3o2)cc(OC)c1OC` has a melting point of 230 to 233 °C. With `Cc1oc(-c2ccccc2)nc1COc1cccc2cc(NS(=O)(=O)C(F)(F)F)ccc12` the melting point was 192 to 194 °C. Work on `Cc1cc(CO)nc(N2CCN(c3ccnc([C@@H](C)O)n3)CC2)n1` yielded a melting point of 139 to 140 °C. With `COc1c(F)cc2[nH]c(=O)c(=O)[nH]c2c1[N+](=O)[O-]` the melting point was 290 to 292 °C. `CCOC(=O)c1cc(NS(=O)(=O)c2ccc(Cl)nc2)ccc1Oc1cncc(Cl)c1` showed a melting point of 166 to 168 °C. In the case of `O=C(O)[C@H](COCc1ccccc1)NC1(c2ccccc2)c2ccccc2-c2ccccc21`, the melting point is reported as 137 to 138 °C. For `C1CNCCSCCNCCN1`, the melting point was 51 to 54 °C. Compound `CC1(C)CCC(C(=O)N2CCC[C@H]2C(=O)O)C1SC(=O)c1ccccc1` (stereo partly specified) has a melting point of 187 °C. `Cn1ncc2c(C(F)F)cc(-c3ccc(N)c(C#N)c3)nc21` showed a melting point of 251 °C. `CC(=O)NC(Cc1c[nH]c2ccccc12)C(=O)OC(c1ccccc1)c1ccccc1` (stereo unspecified) showed a melting point of 147 to 148 °C. Compound `C=CC(=O)O[C@H]1CC[C@H](c2cccc(F)c2F)CC1` has a melting point of 72.9 to 73.6 °C. For `O=[N+]([O-])c1ccc(Oc2c(Cl)cc(S(=O)(=O)Nc3nc(-c4cccc([N+](=O)[O-])c4)cs3)cc2Cl)cc1`, the melting point was over 250 °C. Compound `C=CCOC(=O)c1ccc(OC(=O)c2ccc(OC)c(C34CC5CC(CC(C5)C3)C4)c2)c(C)c1` has a melting point of 138 to 139 °C. `COC(=O)COc1c(Cl)cc(Cl)c(C#N)c1Cl` gave a melting point of 110 to 112 °C. In the case of `CC1(NCC(O)c2ccc3nnnn3c2)CC1` (stereo unspecified), the melting point is reported as 72 to 73 °C. In the case of `CCN1CCN(C(=O)OC2C3=C(SCCS3)C(=O)N2c2ccc(Cl)cn2)CC1` (stereo unspecified), the melting point is reported as 140 °C. Compound `COc1ccccc1C(=O)CC(=O)c1ccccc1O` has a melting point of 80 to 84 °C. With `CN(C)CCOc1ccc(N(C(=O)c2ccc(F)cc2)c2ccccc2)cc1` the melting point was 88.5 to 90 °C. For `OCc1nccc(N2CCCCC2)n1`, the melting point was 92 to 93 °C. Work on `O=C(O)c1ccc2c(c1)Sc1ccccc1N=C2N1CCOCC1` yielded a melting point of 267 to 269 °C. With `N#Cc1ccc2c(c1)CCC=C2c1cncs1` the melting point was 78 to 79 °C. `CCCCCS(=O)(=O)NC(=O)/C=C/c1cc(C(C)(C)C)nn1Cc1ccc(C(F)(F)F)cc1Cl` gave a melting point of 147 to 148 °C. `CCCCC(=O)Nc1cccc2c1C(=O)N(C1(C)CCC(=O)NC1=O)C2=O` (stereo unspecified) showed a melting point of 190 to 192 °C. Work on `CC(C)(C)NC(=NC#N)Nc1cccnc1` yielded a melting point of 205 to 206 °C. In the case of `COCCN(C1CC(C)(C)Oc2ccc(OCc3ccccc3)cc21)S(C)(=O)=O` (stereo unspecified), the melting point is reported as 66 to 68 °C. `CSc1nc(N)c(C(N)=S)s1` showed a melting point of 192 to 195 °C. `Cc1cc(C)c(C(=O)ON2C(C)(C)c3ccccc3C2(C)C)c(C)c1` showed a melting point of 181 to 183 °C. Work on `CN(C)C=Nc1ccc(-c2ccc(Cl)cc2)cn1` yielded a melting point of 125 °C. Work on `CNC(=O)Oc1ccc(NC(=O)C(C)Oc2ccccc2)c(C)c1` (stereo unspecified) yielded a melting point of 123 to 125 °C. With `COc1cc(C=C2C(=O)NC(=O)N2C)ccc1O` the melting point was 197 to 198 °C. In the case of `COc1cc(C(C)=O)ccc1OCCCCCN1CCC(C(O)(c2ccc(F)cc2)c2ccc(F)cc2)CC1`, the melting point is reported as 118 °C. Compound `O=C(Nc1ccccc1)OCC1(COC(=O)Nc2ccccc2)CSc2ccccc2C1=O` has a melting point of 67 to 69 °C. `O=C(NN=Cc1cc(Cl)cc(Cl)c1O)c1cccc(OC(F)(F)F)c1` gave a melting point of 180 to 182 °C. `CC(C)(C)Nc1nc(C(F)(F)F)c(C(=O)Cl)o1` gave a melting point of 52 to 60 °C. Compound `CC(=N)Nc1cccc(O)c1` has a melting point of 115 to 118 °C. Work on `O=C(NCCCCCCNC(=O)c1ccc(OC(F)(F)F)cc1)c1ccc(OC(F)(F)F)cc1` yielded a melting point of 179 to 180 °C. Compound `CN1CCc2c(c3ccccc3n2CCC#N)C1` has a melting point of 108 to 110 °C. `Cc1ccccc1C(Oc1cc(OCc2ccc3c(c2)OCO3)ccc1C#N)c1nnn[nH]1` (racemic) showed a melting point of 106 to 109 °C. Compound `Cc1cc(-n2ccnc2)c2cccc(OCc3c(Cl)ccc(S(=O)(=O)N4CCC[C@H]4C(=O)N4CCN(c5ccccc5)CC4)c3Cl)c2n1` has a melting point of 88 °C. Compound `COC(=O)C1(NC(=O)OCc2ccccc2)CCC(=O)O1` (stereo unspecified) has a melting point of 134 °C. For `COC(=O)CCCSc1c2c(=O)n(C)c(=O)n(CC(C)C)c2nn1Cc1cccc2ccccc12`, the melting point was 100 °C. With `O=C(Nc1nnn(C(F)F)n1)C(c1ccccc1)c1ccccc1` the melting point was 143 to 145 °C. `CCCCNC(=O)Oc1cccc(NC(=O)CC(=O)CCC)c1` showed a melting point of 123 °C. Compound `CC[C@@H]1N(c2ccc(C#N)c(C(F)(F)F)c2)C(=O)C[C@]1(C)O` has a melting point of 137 to 139 °C. For `CC(=O)N1CC(=O)C2=C(C1)CN1NC(N3CCOCC3)=NC1=N2`, the melting point was 310 to 313 °C. In the case of `CN(C)C=C(C=O)c1ccccc1Cl`, the melting point is reported as 86.5 to 88.5 °C. Compound `COc1ccc(Cl)n2nc(S(=O)(=O)Nc3c(F)cccc3F)nc12` has a melting point of 190 to 191 °C. With `CC(=O)OCc1csc(-c2nc3n(c2-c2ccncc2)CCC3)c1` the melting point was 126 °C. `Nc1ccc(Oc2cc3ccccc3cc2Oc2ccc(N)c(O)c2)cc1O` gave a melting point of 196 to 197 °C. Work on `Cc1cnc(C(=O)c2[nH]c3cc(Cl)ccc3c2CC(=O)O)c(C)c1` yielded a melting point of 199 to 200 °C. In the case of `CC(C)c1ccc(C(=O)C2=C(O)C(=O)N(c3cccn(C)c3=O)C2c2ccc(OC(F)(F)F)cc2)cc1` (stereo unspecified), the melting point is reported as 207 °C. Compound `CCOc1cc(N=Nc2ccc(OC)cc2)c(O)c(C(C)(C)C)c1` has a melting point of 105 to 108 °C. In the case of `CC(C)n1nc(-c2c(-c3ccccc3)nn3ccc(OCc4ccncc4)cc23)ccc1=O`, the melting point is reported as 218 to 220 °C. `CN1C(=O)N(c2c(Cl)cccc2Cl)Cc2cnc(NCc3ccc(CN)cc3)nc21` showed a melting point of 151 to 152 °C. With `O=C(O)c1cccc(NCc2cccc(Cl)c2)c1C(=O)O` the melting point was 207 to 209 °C. In the case of `CCOC(=O)c1cn(CC)c2cc3c(cc2c1=O)OCO3`, the melting point is reported as 177 to 178 °C. Work on `COc1ccc([C@H](C)NC(=O)c2cccnc2Oc2ccc(F)cc2)cc1` yielded a melting point of 97 to 99 °C. `ON=C1c2cc(Cl)ccc2-n2cccc21` showed a melting point of 211 °C. Work on `CS(=O)(=O)c1ccc(-c2cc(=O)n(CC3CCCC3)nc2-c2ccc(F)cc2)cc1` yielded a melting point of 76 to 77 °C. For `CCOC(=O)c1ccc(-c2ccc(OC)c3c2OCCO3)cc1`, the melting point was 141 to 142 °C. For `c1cc2c(c(NC3=NCCO3)c1)CCCC2`, the melting point was 101 to 103 °C. In the case of `ClCCOc1cccc(OCCCl)c1`, the melting point is reported as 104 to 105 °C. `Fc1ccc2c(NCc3ccccc3)nc(-c3cccnc3)nc2c1` gave a melting point of 199 to 203 °C. In the case of `COC(=O)/C=C/C=C(c1ccccc1OC)c1ccccc1OC`, the melting point is reported as 100 to 102 °C. `COc1ccc(CN(C)C(=O)CCCOc2ccc3c(c2)CN2CC(=O)NC2=N3)cc1` showed a melting point of 256 to 258 °C. For `Cc1ccccc1-n1ccnc1SCCCO`, the melting point was 47 to 48 °C. For `CC(C)n1nc(-c2c(OCc3ccccc3)nc(N)nc2-c2ccccc2)ccc1=O`, the melting point was 162 to 163 °C. For `CCn1cc(C(=O)O)c(=O)c2cc(F)c(N3CC(C)C(CN)C3)cc21` (stereo unspecified), the melting point was 245 to 248 °C. `O=C(O)C(CC1CCCC1)c1ccc(C#Cc2ccccn2)cc1` (stereo unspecified) gave a melting point of 143 to 147 °C. In the case of `Cc1cc(C)c(S(=O)(=O)NCC(O)(Cn2cncn2)c2ccc(Cl)cc2Cl)c(C)c1` (stereo unspecified), the melting point is reported as 171 to 172 °C. For `COC(=O)C(C)(Oc1ccc(-c2ccc(Cl)cc2)cc1)C(F)(F)F` (stereo unspecified), the melting point was 87 to 88 °C. Compound `Cc1ccc(C(O)(c2ccc(C)cc2)[C@H](C)OS(C)(=O)=O)cc1` has a melting point of 83 to 85 °C. `CC(C)(C)OC(=O)COc1cc(NC(=O)OC(C)(C)C)c(NC(=O)CC(=O)c2cccc(C#N)c2)cc1C#Cc1ccccc1` showed a melting point of 95 °C. Compound `O=c1[nH]c2cc(-c3ccncc3)ccc2c(=O)o1` has a melting point of 265 to 267 °C. `CCOC(=O)c1ccccc1-n1c(C)nc2cnccc21` gave a melting point of 125 to 127 °C. For `CCOC(=O)c1cn(-c2cnsn2)c2nc(Cl)c(F)cc2c1=O`, the melting point was 175 to 178 °C. `O=C(O)c1ccc(OCc2ccc(F)cc2)cc1` showed a melting point of 109 to 110 °C. `Cc1cccc2c1ccc1c3occ(C)c3c(=O)oc21` showed a melting point of 173 to 175 °C. For `C[C@@H](NC(=O)c1c[nH]c2ncc(-c3nn(C)c4cccnc34)nc12)C(=O)N1CC(C#N)C1`, the melting point was 194 to 198 °C. `CCOC(=O)[C@H]1O[C@@H]1C(=O)N[C@H](COCc1ccsc1)CC(C)C` showed a melting point of 61 to 62.5 °C. `c1ccc2c(c1)CCC(n1cncn1)C21OCCO1` (stereo unspecified) showed a melting point of 108 °C. `O=C(O)C1Cc2sccc2C(=O)N1Cc1ccccc1` (stereo unspecified) showed a melting point of 258 °C. Compound `O=C(O)Cc1ccc2c(c1)CC(NS(=O)(=O)c1ccc(Cl)cc1)C2` (stereo unspecified) has a melting point of 154 to 155 °C. `CC1(O)CC(=O)OC(CCc2ccc(OCc3ccccc3)cc2)C1` (stereo unspecified) gave a melting point of 82 to 85 °C. `CC(C)c1nn(-c2ccc(Cl)cc2NO)c(=O)o1` showed a melting point of 129 °C. Compound `O=CC=CC(=C(c1ccc(F)cc1)c1ccc(F)cc1)c1nnn(C(c2ccccc2)(c2ccccc2)c2ccccc2)n1` has a melting point of 122 to 124 °C. With `CS(=O)(=O)c1ccc(C2=C(Br)CCC2)cc1` the melting point was 103 to 104 °C. `O=C1NCC1NC(=O)C(C(=O)OCc1ccccc1)c1ccccc1` (stereo unspecified) showed a melting point of 164 to 166 °C. With `CC(C)OC(=O)C(C)Oc1ncn(-c2ccccc2)n1` (stereo unspecified) the melting point was 104 °C. `CC(C)NC1=NS(=O)(=O)c2sc(Br)c(Br)c2N1` showed a melting point of 250 to 251 °C. Work on `C#Cc1c(C#N)nn(-c2c(Cl)cc(C(F)(F)F)cc2Cl)c1Br` yielded a melting point of 134 to 135 °C. `O=C(Oc1ccc(S(=O)(=O)Nc2ccccc2)cc1)c1ccc(CCBr)cc1` showed a melting point of 156 to 157 °C. With `Cc1ccc(-c2nc3n(n2)Cc2ccccc2-3)cc1` the melting point was 207 to 208 °C. `COc1ccc(C(O)Cc2ccncc2)c2c1OC1(CCCCC1)CC2` (stereo unspecified) gave a melting point of 123 to 133 °C. `CC(C)n1cc(C(=O)O)c2ccc(Cl)cc21` showed a melting point of 206 to 208 °C. Compound `O=C(CC1CC1)N[C@H]1CC[C@H](CCN2CCC(c3cccc4c3CCO4)CC2)CC1` has a melting point of 189 °C. For `Brc1ccc(OC2CCOCC2)cc1`, the melting point was 53 to 55 °C. Work on `CC(=NOCCOc1ccc(CC2SC(=O)NC2=O)cc1)c1ccc(S(=O)(=O)c2ccncc2)cc1` (stereo unspecified) yielded a melting point of 213 to 215 °C. In the case of `O=C(O)CCC(=O)N1CCc2cc(S(=O)(=O)N3CCN(c4cccc(Cl)c4)CC3)ccc21`, the melting point is reported as 228 to 230 °C. For `CS(=O)(=O)c1ccc(-c2cnn(CC(F)(F)F)c(=O)c2OC2CCc3ccccc32)cc1` (stereo unspecified), the melting point was 113 to 114 °C.
